Entries after “also recorded” stand apart in the source; their conditions may differ.
Columns and labels:
[1] = test system: LPS induced pro-inflammatory proteins in liver; test: Western blot of liver tissue lysates after LPS injection and ICV infusion; type: in vivo, mice; details: LPS 1 mg/kg i.p., vs vehicle
Description: Quantification of western blot analyses from liver tissue lysates expressed as fold change to vehicle and normalized over β-actin.
Quantification of western blot analyses from liver tissue lysates expressed as fold change to vehicle and normalized over β-actin. Mice were injected with LPS (1 mg/kg, i.p.) and randomly assigned to receive ICV glucose (4 mM) or vehicle infusions for 4 hours until necropsy.

[2] = test system: LPS induced pro-inflammatory cytokine levels; test: Serum TNF-α and IL-6 by ELISA after LPS injection and ICV infusion; type: in vivo; details: high fat diet C57B1/6 mice, LPS 1 mg/kg i.p., ICV insulin 0.02 mU/h for 4 h vs vehicle, p<0.05
Description: (§1) FIG. 1A-B: FIG. 1A, Experimental protocol for high fat diet feeding and intracerebroventricular (ICV) cannula implantation. 4 week old male C57B1/6 mice were fed a high fat diet for 4 weeks and ICV cannulae were implanted. After 5 days recovery from surgery infusion studies were performed. FIG. 1B, Protocol for infusion studies. Mice were injected with lipopolysaccharides (LPS) (1 mg/kg, i.p.) and randomly assigned to receive ICV insulin or vehicle infusions for 4 hours until necropsy.
FIG. 3: ICV insulin treatment reduces LPS induced pro-inflammatory cytokine levels. Mice were injected with LPS (1mg/kg, i.p.) infused with central insulin (0.02 mU/h) or vehicle for 4 h and sacrificed. Serum concentrations of TNF-α and IL-6 were determined by ELISA. n=12-14 per group, *p<0.05.
Male C57B1/6 mice were weaned at 4 weeks of age and fed a High Fat Diet (HFD) for 35 days to induce insulin resistance. After 30 days of HFD feeding, the mice underwent stereotactic surgery to implant intracerebroventricular (ICV) guide cannula (see, FIG. 2 for an illustration of cannula placement) followed by a 5-day recovery period until infusion experiments were carried out. […]

[3] = test system: LPS induced pro-inflammatory proteins in spleen; test: Western blot of spleen tissue lysates after LPS injection and ICV infusion; type: in vivo, mice; details: LPS 1 mg/kg i.p., ICV infusion 4 h, vs vehicle
Description: as §1
FIG. 4: ICV insulin treatment reduces LPS induced pro-inflammatory proteins in spleen. Quantification of Western blot analyses from spleen tissue lysates expressed as fold change to vehicle and normalized over β-actin. Activation of the transcription factors Stat1 and Stat3 is decreased. The pro-inflammatory markers IL-1β, COX2 and IKK-β are reduced in the ICV insulin infused animals. n=6 per group, *p<0.05.
(§2) Male C57B1/6 mice were weaned at 4 weeks of age and fed a High Fat Diet (HFD) for 35 days to induce insulin resistance. After 30 days of HFD feeding, the mice underwent stereotactic surgery to implant intracerebroventricular (ICV) guide cannula (see, FIG. 2 for an illustration of cannula placement) followed by a 5-day recovery period until infusion experiments were carried out. On the day of the experiment, animals were placed in individual cages, received an intraperitoneal (i.p.) injection of E. coli (LPS) (1 mg/kg) and were continuously ICV infused using a micro infusion pump with Artificial CerebroSpinal Fluid (ACSF) or Insulin (0.005 mU/h) for 4 hours, yielding a total dose of 0.020 mU. See FIG. 1A-B for a graphical illustration of the protocol.
(§3) To investigate whether central insulin reduces cytokine signaling in peripheral tissues, the expression and phosphorylation of signal transducer and activator of transcription (Stat) was measured in lung (FIG. 4), spleen (FIG. 5) and liver (FIG. 6) tissue by western blot. […] Likewise, the activation of Stat3 which plays a central role in signaling of IL-6 and related cytokines was decreased in peripheral tissues after ICV insulin infusion. Lower protein levels of the pro-inflammatory cytokine IL-1β were detectable in the insulin-infused animals in liver, spleen and lung tissue. Lower IL-1β levels in lung tissue has been associated with improvement of acute lung injury, which is a clinically important sequelae in sepsis.

[4] = test system: LPS induced pro-inflammatory proteins in lung; test: Western blot of lung tissue lysates after LPS injection and ICV infusion; type: in vivo, mice; details: LPS 1 mg/kg i.p., ICV infusion 4 h, vs vehicle
Description: as §1
FIG. 5: ICV insulin treatment reduces LPS induced pro-inflammatory proteins in lung. Quantification of Western blot analyses from lung tissue lysates expressed as fold change to vehicle and normalized over α-tubulin. Activation of the transcription factors Stat1 is decreased by central insulin. The level of the pro-inflammatory cytokine IL-1β is reduced in the ICV insulin infused animals. n=6 per group, *p<0.05.
Male C57B1/6 mice were weaned at 4 weeks of age and fed a High Fat Diet (HFD) for 35 days to induce insulin resistance. […]
To investigate whether central insulin reduces cytokine signaling in peripheral tissues, the expression and phosphorylation of signal transducer and activator of transcription (Stat) was measured in lung (FIG. 4), spleen (FIG. 5) and liver (FIG. 6) tissue by western blot. […]

[5] = test system: signal transducer and activator of transcription (Stat); test: Stat expression and phosphorylation in peripheral tissues (lung, spleen, liver) by western blot; type: in vivo, mice; details: after ICV insulin infusion
Description: as §2
as §3, with “Lower IL-1β levels in lung tissue has been associated with improvement of acute lung injury, which is a clinically important sequelae in sepsis.” left out

LPS-treated mice = test: Survival in a mouse model of sepsis (LPS 5 mg/kg, i.p.); type: in vivo; details: high fat diet C57B16 mice, ICV infusion up to 5 days, vs vehicle, assessed daily
Description: FIG. 9: ICV insulin improves survival in a mouse model of sepsis. 4 weeks old C57B16 mice were fed high fat diet for 4 weeks and ICV cannulas were implanted. Mice were injected with LPS (5 mg/kg, ip) and randomly assigned to receive ICV insulin or vehicle infusions for up to 5 days (n=11 per group). Survival was assessed daily as depicted.
In view of the potent anti-inflammatory effects mediated by insulin when administered to the CNS, studies were undertaken to determine whether administration of insulin to the CNS would protect mice from death in a sepsis model. 4-week old C57B16 mice were fed high fat diet for 4 weeks and ICV cannulas were implanted as described above. Mice were injected with LPS (5 mg/kg, i.p.) and randomly assigned to receive ICV insulin or vehicle infusions for up to 5 days (n=11 per group). Survival was assessed daily and results were plotted, see, e.g., FIG. 9.

[6] = ICV insulin 4 h, normalized over β-actin

Row | Compound | Activation of Stat1 in liver ([1]; ICV glucose 4 mM for 4 hours) | Activation of Stat3 in liver ([1]; ICV glucose 4 mM for 4 hours) | IKK-β levels in liver (NF-κB signaling) ([1]; ICV glucose 4 mM for 4 hours) | PDI expression in liver (marker for ER stress) ([1]; ICV glucose 4 mM for 4 hours) | Serum concentration of IL-6 [2] | Serum concentration of TNF-α [2] | COX2 protein in spleen [3] | IKK-β protein in spleen [3] | IL-1β protein in spleen [3] | Activation of Stat1 in spleen ([3]; normalized over β-actin) | Activation of Stat3 in spleen ([3]; normalized over β-actin) | IL-1β protein in lung [4] | Activation of Stat1 in lung ([4]; normalized over α-tubulin) | IL-1β protein in liver ([1]; ICV insulin 4 h) | Activation of Stat1 in liver [1, 6] | Activation of Stat3 in liver [1, 6] | Activation of Stat3 in peripheral tissues [5] | LPS induced phosphorylation of Stat1 ([5]; measured in lung, spleen and liver) | Survival (LPS-treated mice)
1 | O=C[C@H](O)[C@@H](O)[C@H](O)[C@H](O)CO [glucose] | significantly increased | significantly increased | Higher levels | Higher levels; also recorded: elevated |  |  |  |  |  |  |  |  |  |  |  |  |  |  | 
2 | insulin |  |  |  |  | reduces | reduces | reduced | reduced | reduced; also recorded: Lower | decreased | decreased | reduced; also recorded: Lower | decreased | reduced; also recorded: Lower | decreased | decreased | decreased | marked inhibition | significantly (p=0.0194) improved; also recorded: significantly improve the survival

— patent US20120269882A1, “Brain Delivery of Insulin to Treat Systemic Inflammation” (MOUNT SINAI SCHOOL OF MEDICINE Office of Technology & …, priority 2009, published 2012)
